Source: US9872495B2, “Peptoid oligomers, pharmaceutical compositions and methods of using the same” (priority 2009, dated 2018)
≈ marks a conversion by molar mass, not a printed value. Like-named read-outs stand apart in the source and are kept apart here. Numbered stars: 1 amine (or outer) side, 2 acyl side, 3 side chain; on linkers, the order of the positions; unused ones are H or OH. Square brackets hold non-standard residues; d marks the D form. Peptide text beside a SMILES is read from it. X1 = O=C(CN(CC(c1ccccc1)c1ccccc1)[*:1])[*:2]; Gly(N(CH2)3NH2) = NCCCNCC(=O)O; NhArg = N=C(N)NCCCCNCC(=O)O; N(iPr)Gly = CC(C)NCC(=O)O; Nphe = O=C(O)CNCc1ccccc1; Nleu = CC(C)CNCC(=O)O; Nlys = NCCCCNCC(=O)O

What was measured:
[1] = system: Bacillus subtilis ATCC 6633; assay type: cell-based
Description: (§1) Antimicrobial activity was tested against the gram-negative strain Escherichia coli ATCC 25922, and […] strains Staphylococcus aureus ATCC 25923, and Bacillus subtilis ATCC 6633, according to the guidelines given in the document […]-A7 of the CLSI (Clinical and Laboratory Standards Institute; Clinical and Laboratory Standards Institute. Methods for Dilution Antimicrobial Susceptibility Tests for Bacteria That Grow Aerobically-Seventh Edition: Approved Standard CLSI document […]-A7. CLSI, Wayne, USA, 2006). This reference is incorporated herein in its entirety. Hemolytic activity was tested against fresh human erythrocytes.

[2] = system: Escherichia coli ATCC 25922; assay type: cell-based
Description: as §1

[3] = system: Staphylococcus aureus ATCC 25923; assay type: cell-based
Description: as §1

[4] = system: fresh human erythrocytes; assay: Hemolytic activity; assay type: cell-based
Description: Typically, toxicity is evaluated by hemolytic concentration50 (HC50), which measures the concentration of antimicrobial agents at which 50% of the erythrocytes in the culture are lysed. Significant hemolysis, as evaluated by HC50, was detectable only for peptide gramicidin S (40 μg/mL). […] In order to test hemolytic activity of peptoid oligomers further, more stringent parameters were used. Instead of HC50, hemolytic concentration10 (HC10) was used to evaluate hemolytic activity of peptoids used in this study. HC10 represents the concentration of antimicrobial agents where 10% of erythrocytes are lysed. HC10 values were detectable for only four peptoid oligomers. […] Antimicrobial activity was tested against the gram-negative strain Escherichia coli ATCC 25922, and […] strains Staphylococcus aureus ATCC 25923, and Bacillus subtilis ATCC 6633, according to the guidelines given in the document […]-A7 of the CLSI (Clinical and Laboratory Standards Institute; Clinical and Laboratory Standards Institute. Methods for Dilution Antimicrobial Susceptibility Tests for Bacteria That Grow Aerobically-Seventh Edition: Approved Standard CLSI document […]-A7. CLSI, Wayne, USA, 2006). This reference is incorporated herein in its entirety. Hemolytic activity was tested against fresh human erythrocytes.

[5] = system: MSSA (methicillin-sensitive) and MRSA (methicillin-resistant) S. aureus strains; assay type: cell-based, Staphylococcus aureus
Description: Experimental Design: • Twelve strains of MSSA (methicillin-sensitive) and MRSA (methicillin-resistant) S. aureus were cross-tested against two antibacterial peptoid oligomers.
[drawing 50] • Testing was accomplished with 96-well plates wherein each well contained LB media, the S. aureus strain, and a solution of the compound in ethanol at a specific concentration. • A twofold serial dilution of each compound was accomplished with pure ethanol starting from 0.5 mg/mL to 0.0039 mg/mL. • To determine the appropriate concentration of the bacterial strain for each well, the previously grown (overnight in LB media) cultures were diluted with LB media until the optical density at 595 nm (OD595˜OD600) was ˜0.005. • Each experiment was conducted in triplicate, e.g. testing of “Newman” S. aureus strain against a specific concentration of C(NapNdp)3 was replicated in three wells. • Control experiments were also conducted in absence of the compound, i.e. the plates contained only the bacterial strain, LB media, and ethanol. • The plates were incubated and gently shaken overnight (20 hours) at 37° C., and OD595 was read before (t=0) and after (t=20) incubation.
Specifically, along a dilution sequence, the well with the least OD595 after subtraction was determined to be the MIC.

Row | MIC B. sub ([1]; ATCC 6633) [µg/mL] | MIC E. coli ([2]; ATCC 25922) [µg/mL] | MIC S. aureus ([3]; ATCC 25923) [µg/mL] | MIC against Staphylococcus aureus strain ([5]; methicillin-sensitive) and (methicillin-resistant) strains) [µg/mL] | Structure (SMILES) | HC10 (concentration where 10% hemolysis is observed) ([4]; red cells of human) [µg/mL] | HC50 (concentration where 50% hemolysis is observed) ([4]; red cells of human) [µg/mL] | activity across strains of Staphylococcus aureus (in words) ([5]; clinical, community-acquired, and hospital strains, methicillin-sensitive and methicillin-resistant) | non-hemolytic up to (concentration) [4] [µg/mL] | MIC B. sub ([1]; B. subtilis ATCC 6633) [µg/mL] | MIC E. coli ([2]; E. coli ATCC 25922) [µg/mL] | MIC S. aureus ([3]; S. aureus ATCC 25923) [µg/mL] | HC10 (concentration where 10% hemolysis is observed) ([4]; fresh human erythrocytes) [µg/mL] | HC50 (concentration where 50% hemolysis is observed) ([4]; fresh human erythrocytes) [µg/mL]
1 | 15.6 (≈ 19.1 µM) | 500 (≈ 612 µM) | 500 (≈ 612 µM) | – | NCCCN1CC(=O)N(Cc2ccccc2)CC(=O)N(Cc2ccccc2)CC(=O)N(Cc2ccccc2)CC(=O)N(CCCN)CC(=O)N(Cc2ccccc2)CC1=O [Compound 26, C(NpmNap)2Npm2] (cyclo([Nphe][Nphe][Nphe][Gly(N(CH2)3NH2)][Nphe][Gly(N(CH2)3NH2)])) | >250 | >250 | – | – | – | – | – | – | –
2 | 62.5 (≈ 43.6 µM) | 31.3 (≈ 21.8 µM) | 62.5 (≈ 43.6 µM) | – | CC(C)CN1CC(=O)N(CCCCNC(=N)N)CC(=O)N(C(C)C)CC(=O)N2CCC[C@H]2C(=O)N(CC(c2ccccc2)c2ccccc2)CC(=O)N(CC(C)C)CC(=O)N(CCCCNC(=N)N)CC(=O)N(C(C)C)CC(=O)N2CCC[C@H]2C(=O)N(CC(c2ccccc2)c2ccccc2)CC1=O [Compound 28, C(NdpNibNgbNipPro)2] (cyclo([Nleu][NhArg][N(iPr)Gly]P[X1][Nleu][NhArg][N(iPr)Gly]P[X1])) | >250 | >250 | – | – | – | – | – | – | –
3 | 250 (≈ 303 µM) | 250 (≈ 303 µM) | 500 (≈ 605 µM) | – | NCCCCN1CC(=O)N(Cc2ccccc2)CC(=O)N(CCCCN)CC(=O)N(Cc2ccccc2)CC(=O)N(CCCCN)CC(=O)N(Cc2ccccc2)CC1=O [Compound 30, C(NabNpm)3] (cyclo([Nlys][Nphe][Nlys][Nphe][Nlys][Nphe])) | >250 | >250 | – | – | – | – | – | – | –
4 | 250 (≈ 123 µM) | 250 (≈ 123 µM) | 250 (≈ 123 µM) | – | N=C(N)NCCCCN1CC(=O)N(CC(c2ccccc2)c2ccccc2)CC(=O)N(CCCCNC(=N)N)CC(=O)N(CC(c2ccccc2)c2ccccc2)CC(=O)N(CCCCNC(=N)N)CC(=O)N(CC(c2ccccc2)c2ccccc2)CC(=O)N(CCCCNC(=N)N)CC(=O)N(CC(c2ccccc2)c2ccccc2)CC(=O)N(CCCCNC(=N)N)CC(=O)N(CC(c2ccccc2)c2ccccc2)CC1=O [Compound 31, C(NgbNdp)5] | >62.5 | >250 | – | – | – | – | – | – | –
5 | >500 | >500 | >500 | – | N=C(N)NCCCCN1CC(=O)N(CC(c2ccccc2)c2ccccc2)CC(=O)N(CC(c2ccccc2)c2ccccc2)CC(=O)N(CC(c2ccccc2)c2ccccc2)CC(=O)N(CCCCNC(=N)N)CC(=O)N(CC(c2ccccc2)c2ccccc2)CC1=O [Compound 32, C(NdpNgb)2Ndp2] | >250 | >250 | – | – | – | – | – | – | –

Second part, the molecule before the results:

Row | Structure (SMILES) | MIC B. sub ([1]; ATCC 6633) [µg/mL] | MIC E. coli ([2]; ATCC 25922) [µg/mL] | MIC S. aureus ([3]; ATCC 25923) [µg/mL] | MIC against Staphylococcus aureus strain ([5]; methicillin-sensitive) and (methicillin-resistant) strains) [µg/mL] | HC10 (concentration where 10% hemolysis is observed) ([4]; red cells of human) [µg/mL] | HC50 (concentration where 50% hemolysis is observed) ([4]; red cells of human) [µg/mL] | activity across strains of Staphylococcus aureus (in words) ([5]; clinical, community-acquired, and hospital strains, methicillin-sensitive and methicillin-resistant) | non-hemolytic up to (concentration) [4] [µg/mL] | MIC B. sub ([1]; B. subtilis ATCC 6633) [µg/mL] | MIC E. coli ([2]; E. coli ATCC 25922) [µg/mL] | MIC S. aureus ([3]; S. aureus ATCC 25923) [µg/mL] | HC10 (concentration where 10% hemolysis is observed) ([4]; fresh human erythrocytes) [µg/mL] | HC50 (concentration where 50% hemolysis is observed) ([4]; fresh human erythrocytes) [µg/mL]
6 | CC(=O)N(CCCN)CC(=O)N(CC(=O)N(CCCN)CC(=O)N(CC(=O)N(CCCN)CC(=O)N(CC(N)=O)CC(c1ccccc1)c1ccccc1)CC(c1ccccc1)c1ccccc1)CC(c1ccccc1)c1ccccc1 [Compound 4, Ac(NapNdp)3] | 1 (≈ 0.898 µM) | 15.6 (≈ 14 µM) | 15.6 (≈ 14 µM) | 15.6 (≈ 14 µM) | >62.5 | >250 | active | – | – | – | – | – | –
7 | NCCCN1CC(=O)N(Cc2ccccc2)CC(=O)N(CCCN)CC(=O)N(Cc2ccccc2)CC(=O)N(CCCN)CC(=O)N(Cc2ccccc2)CC(=O)N(CCCN)CC(=O)N(Cc2ccccc2)CC1=O [Compound 24, C(NapNpm)4] (cyclo([Nphe][Gly(N(CH2)3NH2)][Nphe][Gly(N(CH2)3NH2)][Nphe][Gly(N(CH2)3NH2)][Nphe][Gly(N(CH2)3NH2)])) | 2 (≈ 1.91 µM) | 31.3 (≈ 29.9 µM) | 31.3 (≈ 29.9 µM) | – | >250 | >250 | – | ≥ 250 | – | – | – | – | –
8 | NCCCN1CC(=O)N(Cc2ccccc2)CC(=O)N(CCCN)CC(=O)N(Cc2ccccc2)CC(=O)N(CCCN)CC(=O)N(Cc2ccccc2)CC(=O)N(CCCN)CC(=O)N(Cc2ccccc2)CC(=O)N(CCCN)CC(=O)N(Cc2ccccc2)CC1=O [Compound 25, C(NapNpm)5] (cyclo([Nphe][Gly(N(CH2)3NH2)][Nphe][Gly(N(CH2)3NH2)][Nphe][Gly(N(CH2)3NH2)][Nphe][Gly(N(CH2)3NH2)][Nphe][Gly(N(CH2)3NH2)])) | 0.5 (≈ 0.383 µM) | 7.8 (≈ 5.97 µM) | 7.8 (≈ 5.97 µM) | – | >250 | >250 | – | ≥ 250 | – | – | – | – | –
9 | CC(C)CN1CC(=O)N(Cc2ccccc2)CC(=O)N2CCC[C@H]2C(=O)N(C(C)C)CC(=O)N(CCCN)CC(=O)N(CC(C)C)CC(=O)N(Cc2ccccc2)CC(=O)N2CCC[C@H]2C(=O)N(C(C)C)CC(=O)N(CCCN)CC1=O [Compound 27, C(NipNapNibNpmPro)2] (cyclo([Nleu][Nphe]P[N(iPr)Gly][Gly(N(CH2)3NH2)][Nleu][Nphe]P[N(iPr)Gly][Gly(N(CH2)3NH2)])) | – | – | – | – | – | – | – | – | >500 | >500 | >500 | >250 | >250
